Values joined by “and” are separate entries in the source; they are usually repeats but may differ in a detail not shown here. Equal values may be shown once.
What was measured:
[1] = system: isolated peritoneal macrophages; test: Cell viability (MTT) assay with LPS/PGD2, peritoneal macrophages; assay type: cell-based, mice
[2] = system: LPS-induced ALI mice; test: LPS-induced ALI model: histological examination (H&E); assay type: in vivo, Balb/c mice
Description: Specific pathogen-free (SPF) Balb/c mice (♂/♀; 20-26 g; 8 weeks old) were purchased from Shanghai SIPPR-BK Experimental Animal Co., Ltd. Mice were kept in an isolated ventilated cage in an environment of 40-60% humidity, 24±2° C., and 12 hrs/12 hrs dark-light cycle, and had free access to food and water. The method for preparing the LPS-induced ALI model was simply described as follows. The mice were randomly divided into a control group (12 mice) and an LPS group (48 mice). The LPS group (48 mice) was further divided into four subgroups (12 mice in each subgroup). The unanaesthetized mice in the four subgroups of LPS were intragastrically administered with normal saline (NS), CT-NA at 10 mg/kg or 30 mg/kg, and Dex at 1 mg/kg, respectively. […] 24 hrs after LPS challenge, the oxygen saturation (SO2) of all mice was measured by a Moor VMS-OXY™ instrument which measured SO2 (%) in the microcirculation at the wavelength range of 500 to 650 nm. […]
The lower lobe of the left lung of each mouse was inflated with neutral buffered 10% formalin instilled at room temperature under constant pressure of 22 to 25 cm H2O for 48 hrs. […] Pulmonary edema, hemorrhage, alveolar wall thickening and infiltration of neutrophils and inflammatory cells were counted and scored to evaluate the severity of lung injury. […] The total lung injury score was expressed as the sum of the four criteria. […]

[3] = Dissolution test of capsules (Chinese Pharmacopoeia 2015, General Method 0931, 2nd Method); assay type: physicochemical
Description: The hydrates obtained hereinabove and the compound of formula A were tested for dissolution rate. The test method was as follows.
Step 1: Pretreating Raw Materials
The samples were passed through a 100 mesh sieve.
Step 2: Blending Raw Materials with Auxiliary Materials
The raw materials and lactose were weighed according to the prescription, mixed in equal increment, sieved and mixed.
The capsules were filled via a capsule filling plate and sealed. The difference of the filling amount was controlled to ±5%. The appearance was inspected to ensure that the sealing was correct and there was no split or deformation.
Test method: dissolution test method (Chinese Pharmacopoeia, edited in 2015, Chapter 4, General Method 0931, the 2nd Method)
Dissolution medium: aqueous solution
Specific test method: The sample was tested following the dissolution test method (Chinese Pharmacopoeia, edited in 2015, Chapter 4, General Method 0931, the 2nd Method). 900 ml aqueous solution was used as the dissolution medium. The speed was 50 rpm. The test was performed in accordance with the method. […] After filtration, the filtrate was precisely measured and quantitatively diluted with the dissolution medium to prepare a solution containing about 10 μg of sample per 1 ml. The absorbance was measured by at 231 nm by UV-Vis spectrophotometry (Chinese Pharmacopoeia, edited in 2015, Chapter 4, General Method 0931, the 2nd Method). An appropriate amount of the control sample was taken, weighed accurately, dissolved in dissolution medium and diluted quantitatively to prepare a solution containing about 10 μg of the sample per 1 ml, and then measured in the same way. The amount of dissolution per capsule was calculated.

[4] = system: CS-induced ALI mice; test: CS-induced lung injury model: lung MPO assay; assay type: in vivo, Balb/c mice; conditions: CS exposure; CT-NA 10 and 30 mg/kg, Dex 1 mg/kg; p<0.01
Description: Model preparation: The mice were randomly divided into 5 groups (12 mice in each group), which were the control group (the mice were exposed to fresh air), the saline group (the mice were exposed to cigarette smoke), dexamethasone (Dex) group (1 mg/kg) (the mice were exposed to cigarette smoke), CT-NA 10 mg/kg group and CT-NA 30 mg/kg group (the mice were exposed to cigarette smoke). According to the grouping, the mice were intragastrically administered saline, Dex and CT-NA, respectively. Thereafter, the mice were exposed to fresh air or cigarette smoke generated from 3R4F research-grade cigarettes (containing about 600 mg TPM/m^3 and 29.9 mg nicotine/m^3) in a cuboid plastic box (65×50x×45 cm). Ten cigarettes were burned every day for seven days. After one cigarette was burned, the next cigarette was ignited. […] The lung tissue was collected for determination of lung weight coefficient, histological examination and MPO activity.
In order to evaluate MPO activity, 50 mg strips of left lung tissue were washed, and then homogenized with normal saline. MPO activity was determined by measuring the changes in absorbance at 460 nm according to the detection standard by using MPO assay kit.

[5] = system: RAW 264.7 macrophages; test: In vitro cytokines mRNA by RT-PCR, CSE- and PGD2-stimulated macrophages; assay type: cell-based, mouse; conditions: CT-NA 10 and 100 μM, p<0.01
Description: The cigarette smoke generated from 3R4F research grade cigarettes was passed through 50 ml PBS by a vacuum pump. Five cigarettes were used to make smoke that passed 50 ml PBS, and each cigarette was lit for 5 minutes. The control solution was prepared in the absence of cigarettes by using a similar method. After extraction, CSE was stored at −80° C.
RAW 264.7 macrophages were added to two 12-well plates. Thereafter, the medium of the 12-well plate was replaced with serum-free RPMI-1640 medium, and the macrophages were incubated for 10-12 hrs and then exposed to CT-NA (10 and 100 μM) for 1 hour. One hour later, one 12-well plate was treated with CSE (4%) and the other with PGD2 (10 μM) for 24 hrs. After the treatment, the supernatant of the treated cells was collected to measure the protein levels of TNF-α, IL-1β, IL-6, KC and IL-10 extracellularly secreted using ELISA kits according to the method of the instructions. Subsequently, RNA samples from each treated plate were extracted and reverse-transcripted into cDNA with HiScript5xQRTSuperMix, and then subjected to RT-PCR. RT-PCR was performed with the BioRad CFX96 Touch™ Real-Time PCR Detection System (BioRad, USA) using AceQ® qPCR SYBR Green Master Mix. And the threshold cycle numbers were obtained using BioRad CFX Manager Software. The primers used for RT-PCR reaction were shown in Table 1. β-actin was used as an internal control. The RT-PCR reactions were triplicated and the relative expression of target mRNA was normalized by the respective β-actin.

CN([C@@H]1CCc2c(CC(=O)[O-])c3cccnc3n2C1)S(=O)(=O)c1ccc(F)cc1.[Na+] [Sodium salt hydrate]
cytotoxicity (MTT), LPS plus CT-NA ([1]; LPS (100 ng/ml) plus CT-NA up to 100 μM): non-toxic | cytotoxicity (MTT), PGD2 plus CT-NA ([1]; PGD2 (10 μM) plus CT-NA up to 100 μM): non-toxic | pathological scores ([2]; CT-NA 10 mg/kg (P<0.05) and 30 mg/kg (P<0.01), Dex 1 mg/kg (P<0.01)): considerably reduced | LPS-induced pulmonary histopathological changes ([2]; CT-NA 10 or 30 mg/kg (dose dependence) or Dex 1 mg/kg, H&E): significant reduction | Dissolution rate, Mean (%), 5 min ([3]; mean of 6 capsules, purified water, 50 rpm, 5 min): 50.5% | Dissolution rate, Mean (%), 10 min ([3]; mean of 6 capsules, purified water, 50 rpm, 10 min): 76.6% | Dissolution rate, Mean (%), 15 min ([3]; mean of 6 capsules, purified water, 50 rpm, 15 min): 92.1% | Dissolution rate, Mean (%), 20 min ([3]; mean of 6 capsules, purified water, 50 rpm, 20 min): 98.6% | Dissolution rate, Mean (%), 30 min ([3]; mean of 6 capsules, purified water, 50 rpm, 30 min): 100.6% | Dissolution rate, Mean (%), 45 min ([3]; mean of 6 capsules, purified water, 50 rpm, 45 min): 100.8% | dissolution rate (in words) ([3]; same method, aqueous dissolution medium): best dissolution rate | Dissolution rate, 5 min ([3]; single capsules 1-6, purified water, 50 rpm, 5 min, hydrate): 55.8% and 34.3% and 57.9% and 45.5% and 56.7% and 52.8% | Dissolution rate, 10 min ([3]; single capsules 1-6, purified water, 50 rpm, 10 min, hydrate): 77.8% and 82.6% and 69.0% and 73.6% and 62.2% and 94.6% | Dissolution rate, 15 min ([3]; single capsules 1-6, purified water, 50 rpm, 15 min, hydrate): 96.6% and 79.1% and 91.7% and 93.3% and 99.1% and 92.7% | Dissolution rate, 20 min ([3]; single capsules 1-6, purified water, 50 rpm, 20 min, hydrate): 101.8% and 94.8% and 96.2% and 98.3% and 100.1% and 100.2% | Dissolution rate, 30 min ([3]; single capsules 1-6, purified water, 50 rpm, 30 min, hydrate): 103.4% and 100.7% and 98.0% and 99.1% and 102.2% and 100.2% | Dissolution rate, 45 min ([3]; single capsules 1-6, purified water, 50 rpm, 45 min, hydrate): 102.8% and 101.5% and 97.5% and 99.7% and 102.7% and 100.9% | MPO activity of lung tissues [4]: attenuated | mRNA levels of IL-1β, IL-6, TNF-α and KC, CSE-stimulated ([5]; CSE (4%) 24 hrs): inhibited | CSE-induced inhibition of IL-10, mRNA ([5]; CSE (4%), dose-dependent): reversed | mRNA levels of IL-1β, IL-6, TNF-α and KC, PGD2-stimulated ([5]; PGD2 (10 μM) 24 hrs): inhibited | PGD2-induced inhibition of IL-10, mRNA ([5]; PGD2 (10 μM), dose-dependent): reversed

From US20220098197A1, “SALTS OF HETEROCYCLIC COMPOUND AND USE THEREOF” (priority 2019, published 2022)
